Data from patent US8735425B2, “Tetrahydroisoquinoline derivative” (Daiichi Sankyo Company, Limited, priority 2008, dated 2014).

biological target: T1, DGAT1 enzyme (Homo sapiens, UniProt O75907); assay: DGAT1 inhibitory activity test; format: biochemical; details: test compound concentration of 0.05 μg/ml; read-out: Inhibitory Rate
T1 construct: made in house
T1 sequence (O75907 1-488): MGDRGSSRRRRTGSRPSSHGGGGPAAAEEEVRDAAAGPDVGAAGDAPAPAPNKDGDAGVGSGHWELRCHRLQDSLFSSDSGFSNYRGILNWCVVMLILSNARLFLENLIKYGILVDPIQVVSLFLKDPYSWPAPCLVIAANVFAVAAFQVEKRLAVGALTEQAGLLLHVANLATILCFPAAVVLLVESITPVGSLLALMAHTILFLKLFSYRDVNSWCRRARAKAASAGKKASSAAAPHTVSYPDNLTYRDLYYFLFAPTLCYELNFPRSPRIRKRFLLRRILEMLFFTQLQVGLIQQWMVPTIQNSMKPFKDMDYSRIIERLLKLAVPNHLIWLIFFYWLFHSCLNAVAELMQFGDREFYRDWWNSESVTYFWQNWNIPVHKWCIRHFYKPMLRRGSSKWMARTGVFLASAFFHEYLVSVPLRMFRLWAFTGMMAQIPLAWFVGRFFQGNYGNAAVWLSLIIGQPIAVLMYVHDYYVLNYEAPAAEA
Method: DGAT1 enzyme was prepared and stored according to the method described in US2007/0249620.
(2) DGAT1 Inhibitory Activity Test
A reaction solution having the following composition was incubated at room temperature (23° C.) for 30 minutes: 175 mM Tris-HCl (pH 8.0), 8 mM MgCl2, 1 mg/ml BSA, 0.3 mM 1,2-dioleoyl-sn-glycerol (10-fold concentration of EtOH solution, 10% added), 10 μM [^14C]-oleoyl-CoA (approximately 50 mCi/mmol), 0.5% Triton X-100, the DGAT1 enzyme (10 μg) obtained in Test Example 1(1), and a test compound or vehicle (DMSO/MeOH, 7:3 solution, 5% added), […] in total. A reaction stop solution ([…] consisting of isopropanol/1-heptane/water (80:20:2, v/v/v) was added to the reaction solution and stirred. Subsequently, water (30 μl) and 1-heptane (100 μl) were added thereto and stirred. The 1-heptane layer (50 μl) was spotted onto a TLC plate and developed with a developing solvent consisting of 1-hexane/diethyl ether/acetic acid (85:15:1, v/v/v). The radioactivity of the triglyceride fraction was quantified using BAS2000 Bio Image Analyzer (FUJIFILM) and compared with the control. The inhibitory activity of the test compound was calculated according to the formula shown below. In this context, the radioactivity at no reaction (0 minute incubation) was used as background. Inhibitory Rate=100−[(Radioactivity of sample supplemented with test compound)−(Background)]/[(Radioactivity of control)−(Background)]×100

SMILES	inhibition at 0.05 µg/mL [%]
O=C(O)C[C@@H]1CC[C@H](OC(=O)N2CCc3cc(NC(=O)Nc4ccccc4F)ccc3C2)C1 (relative stereo) [Example 6, cis-6-[3-(2-fluoro-phenyl)-ureido]-3,4-dihydro-1H-isoquinoline-2-carboxylic acid 3-carboxymethyl-cyclopentyl ester]	≥ 50
C[C@H]1C[C@@H](CC(=O)O)CC[C@H]1OC(=O)N1CCc2cc(NC(=O)Nc3ccccc3F)ccc2C1 (relative stereo) [Example 14, 6-[3-(2-fluoro-phenyl)-ureido]-3,4-dihydro-1H-isoquinoline-2-carboxylic acid c-4-carboxymethyl-c-2-methyl-r-1-cyclohexyl ester]	≥ 50
O=C(O)C[C@H]1CC[C@@H](OC(=O)N2CCc3cc(NC(=O)Nc4ccccc4F)ccc3C2)CC1 [Example 3, cis-6-[3-(2-fluoro-phenyl)-ureido]-3,4-dihydro-1H-isoquinoline-2-carboxylic acid 4-carboxymethyl-cyclohexyl ester]	≥ 50
O=C(Nc1ccc2c(c1)CCN(C(=O)O[C@H]1CC[C@@H](C(=O)O)CC1)C2)Nc1ccccc1F [Example 9, cis-6-[3-(2-fluoro-phenyl)-ureido]-3,4-dihydro-1H-isoquinoline-2-carboxylic acid 4-carboxy-cyclohexyl ester]	≥ 50
NC(=O)C[C@H]1CC[C@H](OC(=O)N2CCc3cc(NC(=O)Nc4ccccc4F)ccc3C2)CC1 [Example 18, trans-6-[3-(2-fluoro-phenyl)-ureido]-3,4-dihydro-1H-isoquinoline-2-carboxylic acid 4-carbamoylmethyl-cyclohexyl ester]	≥ 50
CC(C)(NC(=O)C[C@H]1CC[C@H](OC(=O)N2CCc3cc(NC(=O)Nc4ccccc4F)ccc3C2)CC1)C(=O)O [Example 19, trans-6-[3-(2-fluoro-phenyl)-ureido]-3,4-dihydro-1H-isoquinoline-2-carboxylic acid 4-[(1-carboxy-1-methyl-1-ethylcarbamoyl)-methyl]-cyclohexyl ester]	≥ 50
CN(C)C(=O)C[C@H]1CC[C@H](OC(=O)N2CCc3cc(NC(=O)Nc4ccccc4F)ccc3C2)CC1 [Example 33, trans-6-[3-(2-fluoro-phenyl)-ureido]-3,4-dihydro-1H-isoquinoline-2-carboxylic acid 4-dimethylcarbamoylmethyl-cyclohexyl ester]	≥ 50
CNC(=O)C[C@H]1CC[C@H](OC(=O)N2CCc3cc(NC(=O)Nc4ccccc4F)ccc3C2)CC1 [Example 34, trans-6-[3-(2-fluoro-phenyl)-ureido]-3,4-dihydro-1H-isoquinoline-2-carboxylic acid 4-methylcarbamoylmethyl-cyclohexyl ester]	≥ 50
O=C(O)CNC(=O)C[C@H]1CC[C@H](OC(=O)N2CCc3cc(NC(=O)Nc4ccccc4F)ccc3C2)CC1 [Example 35, trans-6-[3-(2-fluoro-phenyl)-ureido]-3,4-dihydro-1H-isoquinoline-2-carboxylic acid 4-[(carboxymethyl-carbamoyl)-methyl]-cyclohexyl ester]	≥ 50
CC(NC(=O)C[C@H]1CC[C@H](OC(=O)N2CCc3cc(NC(=O)Nc4ccccc4F)ccc3C2)CC1)C(=O)O (stereo partly drawn) [Example 36, trans-6-[3-(2-fluoro-phenyl)-ureido]-3,4-dihydro-1H-isoquinoline-2-carboxylic acid 4-[(1-carboxy-ethylcarbamoyl)-methyl]-cyclohexyl ester]	≥ 50
O=C(C[C@H]1CC[C@H](OC(=O)N2CCc3cc(NC(=O)Nc4ccccc4F)ccc3C2)CC1)NC1(C(=O)O)CC1 [Example 37, trans-6-[3-(2-fluoro-phenyl)-ureido]-3,4-dihydro-1H-isoquinoline-2-carboxylic acid 4-[(1-carboxy-cyclopropylcarbamoyl)-methyl]-cyclohexyl ester]	≥ 50
O=C(Nc1ccc2c(c1)CCN(C(=O)O[C@H]1CC[C@H](CC(=O)N3CCCC3C(=O)O)CC1)C2)Nc1ccccc1F (stereo partly drawn) [Example 38, trans-6-[3-(2-fluoro-phenyl)-ureido]-3,4-dihydro-1H-isoquinoline-2-carboxylic acid 4-[2-(2-carboxy-pyrrolidin-1-yl)-2-oxo-ethyl]-cyclohexyl ester]	≥ 50

Next, values leading:

inhibition at 0.05 µg/mL [%]	SMILES
≥ 50	O=C(Nc1ccc2c(c1)CCN(C(=O)O[C@H]1CC[C@H](Cc3nc(C(=O)O)co3)CC1)C2)Nc1ccccc1F [Example 39, trans-6-[3-(2-fluoro-phenyl)-ureido]-3,4-dihydro-1H-isoquinoline-2-carboxylic acid 4-(4-carboxy-oxazol-2-ylmethyl)-cyclohexyl ester]
≥ 50	O=C(C[C@H]1CC[C@H](OC(=O)N2CCc3cc(NC(=O)Nc4ccccc4F)ccc3C2)CC1)Nc1nnn[nH]1 [Example 40, trans-6-[3-(2-fluoro-phenyl)-ureido]-3,4-dihydro-1H-isoquinoline-2-carboxylic acid 4-[(1H-tetrazol-5-ylcarbamoyl)-methyl]-cyclohexyl ester]
≥ 50	O=C(Nc1ccc2c(c1)CCN(C(=O)O[C@H]1CC[C@H](Cc3cc(O)n[nH]3)CC1)C2)Nc1ccccc1F [Example 42, trans-6-[3-(2-fluoro-phenyl)-ureido]-3,4-dihydro-1H-isoquinoline-2-carboxylic acid 4-(5-hydroxy-2H-pyrazol-3-ylmethyl)-cyclohexyl ester]
≥ 50	C[S+]([O-])c1cccc(NC(=O)Nc2ccc3c(c2)CCN(C(=O)O[C@H]2CC[C@H](CC(=O)O)CC2)C3)c1 (stereo partly drawn) [Example 65, trans-6-[3-(3-methanesulfinyl-phenyl)-ureido]-3,4-dihydro-1H-isoquinoline-2-carboxylic acid 4-carboxymethyl-cyclohexyl ester]
≥ 50	COc1ccc(NC(=O)Nc2ccc3c(c2)CCN(C(=O)O[C@H]2CC[C@H](CC(=O)O)CC2)C3)cc1 [Example 79, trans-6-[3-(4-methoxy-phenyl)-ureido]-3,4-dihydro-1H-isoquinoline-2-carboxylic acid 4-carboxymethyl-cyclohexyl ester]
≥ 50	O=C(O)C[C@H]1CC[C@H](OC(=O)N2CCc3cc(NC(=O)Nc4cncc(Cl)c4)ccc3C2)CC1 [Example 93, trans-6-[3-(5-chloro-pyridin-3-yl)-ureido]-3,4-dihydro-1H-isoquinoline-2-carboxylic acid 4-carboxymethyl-cyclohexyl ester]
≥ 50	O=C(O)C[C@H]1CC[C@H](OC(=O)N2CCc3cc(NC(=O)Nc4cnccn4)ccc3C2)CC1 [Example 94, trans-6-(3-pyrazin-2-yl-ureido)-3,4-dihydro-1H-isoquinoline-2-carboxylic acid 4-carboxymethyl-cyclohexyl ester]
≥ 50	O=C(O)C[C@H]1CC[C@H](OC(=O)N2CCc3cc(Nc4nc5ccccc5s4)ccc3C2)CC1 [Example 98, trans-6-(benzothiazol-2-ylamino)-3,4-dihydro-1H-isoquinoline-2-carboxylic acid 4-carboxymethyl-cyclohexyl ester]
≥ 50	COc1cccc(NC(=O)Nc2ccc3c(c2)CCN(C(=O)C(C)C2CCC(CC(=O)O)CC2)C3)c1 (stereo not drawn) [Example 106, [4-(2-{6-[3-(3-methoxy-phenyl)-ureido]-3,4-dihydro-1H-isoquinolin-2-yl}-1-methyl-2-oxy-ethyl)-cyclohexyl]-acetic acid]
